This passage reports IC50 results from patent US6448058B1, “Methods for solid phase synthesis of mercapto compounds and derivatives, combinatorial libraries thereof and compositions obtained thereby” (Versicor, Inc., priority 1997, dated 2002).

As usually defined, the IC50 is the concentration that inhibits the measured activity by half.

The target in this experiment is T1, peptide deformylase (Escherichia coli, UniProt P0A6K3).
T1 construct: made in house
Put plainly: Peptide deformylase assay (continuous / discontinuous, f-ML-pNA substrate coupled with Aeromonas aminopeptidase). The experiment is classed as biochemical. The settings on record: tested as a 1:1 mixture of diastereomers; read-out: IC50 against peptide deformylase. As to the method: The dipeptide substrate, N-formyl-methionylleucyl-p-nitroanilide (f-ML-pNA) is first deformylated by the peptide deformylase to give the corresponding dipeptide with a free amino terminus, which is a substrate for an aminopeptidase from Aeromonas proteolytica (Sigma Chemical Company). Sequential action by the aminopeptidase releases p-nitroaniline, a chromophore which can be detected spectrophotometrically. Peptide deformylase enzyme is prepared as described in Rajagopalan et al., Biochemistry (1997) 36:13910-13918. The dipeptide substrate is prepared as described in Wei and Pei (1997) Anal. Biochem. 250:29-34. Assays are carried out at 23° C. Assays are performed in polystyrene cuvettes which contain 50 mM potassium phosphate, pH 7.0, 100 μM ethylene glycol bis(b-aminoethyl ether)-N,N′-tetraacetic acid (EGTA), 0 to 200 μM peptide substrate, and 0.8 unit Aeromonas aminopeptidase. […] Reactions are monitored continuously at 405 nm in a Perkin-Elmer λ3 UV/VIS spectrophotometer, and the initial rates are calculated from the early part of the reaction progression curves (<60 s). […]
Discontinuous reactions are carried out in a buffer containing 50 mM potassium phosphate, pH 7.0, 100 μM EGTA, and 0 to 200 μM peptide substrate (total volume 250 or 500 μl). […] The amount of p-nitroaniline released is determined by measuring its absorbance at 405 nm. […]

Bounds are passed on as bounds.

T1 sequence (P0A6K3 whole entry): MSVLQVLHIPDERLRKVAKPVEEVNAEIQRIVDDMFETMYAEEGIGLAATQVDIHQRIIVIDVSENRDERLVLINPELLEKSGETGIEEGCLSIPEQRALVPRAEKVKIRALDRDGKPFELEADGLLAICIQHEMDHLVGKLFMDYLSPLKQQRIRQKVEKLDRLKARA

On to `CCCCC(CS)C(=O)N[C@H](C(=O)N1CCC[C@H]1CO)C(C)C` (mixture of isomers) [Compound 111], for which the IC50 was less than 10 µM.
As to `CCCCC(CS)C(=O)N[C@@H](CC(C)C)C(=O)Nc1ccc([N+](=O)[O-])cc1` (mixture of isomers) [Compound 110], the IC50 is less than 10 µM.
